Results reported in ChEMBL document CHEMBL5291721, “A preclinical secondary pharmacology resource illuminates target-adverse drug reaction associations of marketed drugs” (Nat Commun, 2023).

Tests used:
[1] = target: T1, Progesterone receptor (Homo sapiens, UniProt P06401)
T1 sequence (P06401 whole entry): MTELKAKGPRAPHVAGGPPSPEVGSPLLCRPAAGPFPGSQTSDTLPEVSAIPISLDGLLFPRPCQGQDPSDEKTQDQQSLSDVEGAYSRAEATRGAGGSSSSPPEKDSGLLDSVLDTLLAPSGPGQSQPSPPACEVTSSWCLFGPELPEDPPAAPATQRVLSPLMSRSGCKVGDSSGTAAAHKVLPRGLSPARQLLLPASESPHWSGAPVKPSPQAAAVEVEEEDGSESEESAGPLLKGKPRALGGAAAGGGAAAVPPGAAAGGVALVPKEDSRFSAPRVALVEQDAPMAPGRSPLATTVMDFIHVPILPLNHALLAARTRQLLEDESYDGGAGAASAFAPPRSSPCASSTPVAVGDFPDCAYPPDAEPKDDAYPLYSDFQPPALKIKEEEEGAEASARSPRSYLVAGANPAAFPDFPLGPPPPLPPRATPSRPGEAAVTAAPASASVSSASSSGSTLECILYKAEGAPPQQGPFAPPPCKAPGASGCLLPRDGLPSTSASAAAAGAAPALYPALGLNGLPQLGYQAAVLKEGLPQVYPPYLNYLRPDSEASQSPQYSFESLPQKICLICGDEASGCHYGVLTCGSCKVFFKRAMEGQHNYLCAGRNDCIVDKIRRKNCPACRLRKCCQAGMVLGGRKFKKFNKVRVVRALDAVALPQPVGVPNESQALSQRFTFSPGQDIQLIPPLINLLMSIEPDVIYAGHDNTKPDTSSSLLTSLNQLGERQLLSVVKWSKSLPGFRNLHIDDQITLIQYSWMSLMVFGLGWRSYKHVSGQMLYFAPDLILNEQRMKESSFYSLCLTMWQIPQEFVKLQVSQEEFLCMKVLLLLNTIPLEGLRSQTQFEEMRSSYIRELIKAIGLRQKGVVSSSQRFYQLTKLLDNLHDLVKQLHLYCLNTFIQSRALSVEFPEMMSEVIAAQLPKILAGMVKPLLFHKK

[2] = target: Voltage-gated inwardly rectifying potassium channel KCNH2 (Homo sapiens, UniProt Q12809); format: functional; conditions: read-out: AC50
[3] = target: D(3) dopamine receptor (Homo sapiens, UniProt P35462)
[4] = target: T2, Amine oxidase [flavin-containing] A (Homo sapiens, UniProt P21397); format: functional
T2 sequence (P21397 whole entry): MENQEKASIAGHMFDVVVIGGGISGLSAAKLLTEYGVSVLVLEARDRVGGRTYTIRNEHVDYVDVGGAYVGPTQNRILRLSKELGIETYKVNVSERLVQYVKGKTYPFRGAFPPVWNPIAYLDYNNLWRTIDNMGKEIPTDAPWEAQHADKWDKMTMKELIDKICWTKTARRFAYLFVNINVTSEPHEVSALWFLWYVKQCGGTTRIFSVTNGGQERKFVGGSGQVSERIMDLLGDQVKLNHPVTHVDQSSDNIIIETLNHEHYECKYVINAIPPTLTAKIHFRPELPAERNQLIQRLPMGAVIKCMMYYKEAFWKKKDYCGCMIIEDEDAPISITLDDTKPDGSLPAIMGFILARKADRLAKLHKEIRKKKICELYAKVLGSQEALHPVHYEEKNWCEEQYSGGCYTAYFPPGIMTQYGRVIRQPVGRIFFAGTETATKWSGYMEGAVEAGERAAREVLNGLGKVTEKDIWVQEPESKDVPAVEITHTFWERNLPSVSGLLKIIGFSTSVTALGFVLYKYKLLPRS

[5] = target: Beta-1 adrenergic receptor (Homo sapiens, UniProt P08588); format: functional
[6] = target: T3, 5-hydroxytryptamine receptor 2C (Homo sapiens, UniProt P28335)
T3 sequence (P28335 whole entry): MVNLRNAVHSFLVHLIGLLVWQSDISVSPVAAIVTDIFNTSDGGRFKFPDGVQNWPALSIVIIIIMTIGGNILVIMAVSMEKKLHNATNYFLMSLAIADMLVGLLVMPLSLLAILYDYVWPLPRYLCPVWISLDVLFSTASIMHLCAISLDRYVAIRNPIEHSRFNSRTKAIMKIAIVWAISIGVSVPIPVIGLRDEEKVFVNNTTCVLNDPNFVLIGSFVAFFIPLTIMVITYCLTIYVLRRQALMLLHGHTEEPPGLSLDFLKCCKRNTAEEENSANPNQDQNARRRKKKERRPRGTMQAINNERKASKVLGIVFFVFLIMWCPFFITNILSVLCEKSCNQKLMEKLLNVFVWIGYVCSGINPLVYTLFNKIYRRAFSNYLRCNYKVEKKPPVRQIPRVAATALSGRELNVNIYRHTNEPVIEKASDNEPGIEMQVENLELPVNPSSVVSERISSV

[7] = target: T4, Cholecystokinin receptor type A (Homo sapiens, UniProt P32238)
T4 sequence (P32238 whole entry): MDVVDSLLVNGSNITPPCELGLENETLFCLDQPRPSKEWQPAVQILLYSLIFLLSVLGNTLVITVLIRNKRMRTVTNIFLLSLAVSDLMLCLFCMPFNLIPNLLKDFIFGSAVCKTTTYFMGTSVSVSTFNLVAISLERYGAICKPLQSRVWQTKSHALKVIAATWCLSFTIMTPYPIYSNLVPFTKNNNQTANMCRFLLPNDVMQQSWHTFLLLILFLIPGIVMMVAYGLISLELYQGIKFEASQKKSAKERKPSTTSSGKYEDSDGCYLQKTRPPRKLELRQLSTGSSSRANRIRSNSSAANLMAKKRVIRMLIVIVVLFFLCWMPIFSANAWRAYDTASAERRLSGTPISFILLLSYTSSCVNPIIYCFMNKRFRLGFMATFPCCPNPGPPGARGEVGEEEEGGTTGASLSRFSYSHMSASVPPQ

[8] = target: D(1A) dopamine receptor (Homo sapiens, UniProt P21728); format: functional, cell-based
[9] = target: Delta-type opioid receptor (Homo sapiens, UniProt P41143)
Further: assay procedure not described here.

Chain of Beta-1 adrenergic receptor (P08588 whole entry): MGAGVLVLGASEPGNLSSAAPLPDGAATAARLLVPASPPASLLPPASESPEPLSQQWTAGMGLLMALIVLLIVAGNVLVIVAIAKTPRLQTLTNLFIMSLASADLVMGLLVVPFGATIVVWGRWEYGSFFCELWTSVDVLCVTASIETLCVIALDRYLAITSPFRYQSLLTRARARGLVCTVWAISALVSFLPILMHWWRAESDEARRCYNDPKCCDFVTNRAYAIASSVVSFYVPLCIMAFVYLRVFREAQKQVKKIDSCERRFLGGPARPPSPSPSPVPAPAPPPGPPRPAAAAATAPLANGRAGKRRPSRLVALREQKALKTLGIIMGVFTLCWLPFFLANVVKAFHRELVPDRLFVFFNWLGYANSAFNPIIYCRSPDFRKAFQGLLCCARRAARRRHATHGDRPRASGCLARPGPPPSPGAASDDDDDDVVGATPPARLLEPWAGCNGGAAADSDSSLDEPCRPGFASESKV
Chain of Delta-type opioid receptor (P41143 whole entry): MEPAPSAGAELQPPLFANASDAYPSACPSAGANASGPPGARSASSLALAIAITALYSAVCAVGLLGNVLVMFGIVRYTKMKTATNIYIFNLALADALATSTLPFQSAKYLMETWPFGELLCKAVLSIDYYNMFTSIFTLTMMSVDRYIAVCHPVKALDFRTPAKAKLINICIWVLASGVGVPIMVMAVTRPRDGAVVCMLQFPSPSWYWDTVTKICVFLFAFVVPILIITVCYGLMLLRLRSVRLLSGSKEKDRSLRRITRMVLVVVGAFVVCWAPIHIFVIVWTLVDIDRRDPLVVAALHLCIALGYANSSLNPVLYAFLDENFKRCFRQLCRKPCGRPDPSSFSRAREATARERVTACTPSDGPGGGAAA
Chain of D(1A) dopamine receptor (P21728 whole entry): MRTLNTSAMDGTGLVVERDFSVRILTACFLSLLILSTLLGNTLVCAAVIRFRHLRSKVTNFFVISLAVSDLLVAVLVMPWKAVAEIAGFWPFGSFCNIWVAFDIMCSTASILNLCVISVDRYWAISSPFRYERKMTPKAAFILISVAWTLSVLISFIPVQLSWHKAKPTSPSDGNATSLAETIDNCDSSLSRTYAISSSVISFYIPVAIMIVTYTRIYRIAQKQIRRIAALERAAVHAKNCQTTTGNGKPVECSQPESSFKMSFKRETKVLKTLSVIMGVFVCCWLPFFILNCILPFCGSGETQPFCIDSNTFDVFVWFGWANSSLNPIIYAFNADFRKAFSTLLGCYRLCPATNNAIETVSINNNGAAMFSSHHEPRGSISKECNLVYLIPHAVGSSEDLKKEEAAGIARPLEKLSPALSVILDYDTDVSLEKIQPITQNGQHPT
Chain of Voltage-gated inwardly rectifying potassium channel KCNH2 (Q12809 whole entry): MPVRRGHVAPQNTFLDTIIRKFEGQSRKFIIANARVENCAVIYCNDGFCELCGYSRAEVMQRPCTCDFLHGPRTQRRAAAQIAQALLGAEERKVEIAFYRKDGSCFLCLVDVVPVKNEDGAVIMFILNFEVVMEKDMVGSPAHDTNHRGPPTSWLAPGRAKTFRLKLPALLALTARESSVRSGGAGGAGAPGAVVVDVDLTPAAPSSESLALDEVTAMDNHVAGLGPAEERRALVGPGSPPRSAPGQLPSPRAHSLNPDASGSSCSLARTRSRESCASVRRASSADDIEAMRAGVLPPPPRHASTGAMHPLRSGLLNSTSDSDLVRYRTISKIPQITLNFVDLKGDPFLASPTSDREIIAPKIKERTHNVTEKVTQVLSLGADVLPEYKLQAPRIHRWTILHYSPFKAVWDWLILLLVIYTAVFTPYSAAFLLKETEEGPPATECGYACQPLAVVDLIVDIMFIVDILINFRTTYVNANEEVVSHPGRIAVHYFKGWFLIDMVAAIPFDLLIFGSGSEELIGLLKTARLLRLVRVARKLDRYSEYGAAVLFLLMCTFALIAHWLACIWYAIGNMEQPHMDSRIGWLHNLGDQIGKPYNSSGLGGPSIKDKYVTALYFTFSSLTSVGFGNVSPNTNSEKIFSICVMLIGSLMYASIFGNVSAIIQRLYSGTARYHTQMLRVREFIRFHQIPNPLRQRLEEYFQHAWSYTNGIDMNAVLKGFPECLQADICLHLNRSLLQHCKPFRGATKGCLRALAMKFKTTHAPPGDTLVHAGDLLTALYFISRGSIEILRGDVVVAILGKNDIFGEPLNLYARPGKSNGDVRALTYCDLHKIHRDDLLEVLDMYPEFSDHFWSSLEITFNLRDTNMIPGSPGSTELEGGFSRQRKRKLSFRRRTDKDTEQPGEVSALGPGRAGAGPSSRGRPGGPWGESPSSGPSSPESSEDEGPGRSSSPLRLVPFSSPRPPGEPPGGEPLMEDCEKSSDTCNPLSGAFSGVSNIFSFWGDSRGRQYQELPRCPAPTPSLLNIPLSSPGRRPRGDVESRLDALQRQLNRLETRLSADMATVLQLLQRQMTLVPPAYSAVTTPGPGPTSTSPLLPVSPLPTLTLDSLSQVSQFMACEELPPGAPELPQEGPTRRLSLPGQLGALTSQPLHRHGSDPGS
Chain of D(3) dopamine receptor (P35462 whole entry): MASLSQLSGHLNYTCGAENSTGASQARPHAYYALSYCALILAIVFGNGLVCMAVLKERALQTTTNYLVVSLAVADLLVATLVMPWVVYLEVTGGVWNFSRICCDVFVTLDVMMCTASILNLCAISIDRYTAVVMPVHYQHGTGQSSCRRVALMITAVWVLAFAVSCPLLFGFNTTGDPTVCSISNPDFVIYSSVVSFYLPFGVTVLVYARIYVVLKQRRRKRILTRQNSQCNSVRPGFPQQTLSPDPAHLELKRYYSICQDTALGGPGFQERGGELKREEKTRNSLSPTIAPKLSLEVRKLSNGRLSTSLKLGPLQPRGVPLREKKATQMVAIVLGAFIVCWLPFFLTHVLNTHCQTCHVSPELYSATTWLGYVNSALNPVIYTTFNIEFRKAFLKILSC

AC50 [4] [µM] | AC50 [5] [µM] | AC50 [6] [µM] | AC50 [7] [µM] | AC50 [8] [µM] | AC50 [9] [µM] | SMILES | AC50 [1] [µM] | AC50 [2] [µM] | AC50 [3] [µM]
– | – | – | – | – | – | OC[C@H]1NC[C@H](O)[C@@H](O)[C@H]1O | > 30 | > 30 | > 30
– | – | – | – | – | – | O=C(O)[C@@H](S)[C@@H](S)C(=O)O | > 30 | > 30 | > 30
– | – | – | – | – | – | CC#CC(=O)N1CCC[C@H]1c1nc(-c2ccc(C(=O)Nc3ccccn3)cc2)c2c(N)nccn12 [ACALABRUTINIB] | > 30 | > 30 | > 30
> 10 | > 10 | > 30 | > 30 | > 10 | > 30 | O=C(O)COC(=O)Cc1ccccc1Nc1c(Cl)cccc1Cl [ACECLOFENAC] | – | > 30 | –
– | – | – | – | – | – | C=CCOc1ccc(CC(=O)O)cc1Cl [ALCLOFENAC] | > 30 | > 30 | –
> 10 | > 10 | > 30 | > 10 | > 10 | > 30 | NCCCCCC(=O)O [AMINOCAPROIC ACID] | – | > 30 | –
> 30 | > 30 | > 30 | > 30 | > 30 | > 30 | CC(C)C[C@H](NC(=O)[C@H](Cc1ccccc1)NC(=O)c1cnccn1)B(O)O [BORTEZOMIB] | – | > 30 | –
– | – | – | – | – | – | NC(=O)C1(N2CCCCC2)CCN(CCCN2c3ccccc3CCc3ccccc32)CC1 [CARPIPRAMINE] | > 30 | 2.2 | 0.0207
– | – | – | – | – | – | CN1CCN(C(c2ccccc2)c2ccc(Cl)cc2)CC1 (stereo not drawn) [CHLORCYCLIZINE] | > 30 | 4.64 | 0.449
– | – | – | – | – | – | CCCCCCCCCCCCCCCC(=O)OC[C@H](COP(=O)([O-])OCC[N+](C)(C)C)OC(=O)CCCCCCCCCCCCCCC [COLFOSCERIL PALMITATE] | > 30 | > 30 | > 30
– | – | – | – | – | – | O=P1(N(CCCl)CCCl)NCCCO1 (stereo not drawn) [CYCLOPHOSPHAMIDE ANHYDROUS] | > 30 | > 30 | > 30
– | – | – | – | – | – | CC(C)Nc1cccnc1N1CCN(C(=O)c2cc3cc(NS(C)(=O)=O)ccc3[nH]2)CC1 [DELAVIRDINE] | > 30 | 16 | > 30
– | – | – | – | – | – | C[C@@H](CN1CC(=O)NC(=O)C1)N1CC(=O)NC(=O)C1 [DEXRAZOXANE] | > 30 | > 30 | > 30
> 30 | 0.856 | > 30 | > 30 | > 30 | > 30 | COC(=O)CCc1ccc(OCC(O)CNC(C)C)cc1 (stereo not drawn) [ESMOLOL] | – | > 30 | –

SMILES | AC50 [4] [µM] | AC50 [5] [µM] | AC50 [6] [µM] | AC50 [7] [µM] | AC50 [8] [µM] | AC50 [9] [µM] | AC50 [1] [µM] | AC50 [2] [µM] | AC50 [3] [µM]
CC[N+](CC)(CCNC(=O)C(=O)NCC[N+](CC)(CC)Cc1ccccc1Cl)Cc1ccccc1Cl [AMBENONIUM] | > 30 | > 30 | > 30 | > 30 | > 30 | > 30 | – | 7.8 | –
CC(C)NCC(O)COc1ccc(CC(N)=O)cc1 (stereo not drawn) [ATENOLOL] | > 30 | – | > 30 | > 30 | – | > 30 | – | – | –
